In patent US9808512B2, “Anti-cell proliferative compounds and methods of use” (KALOS Therapeutics, priority 2007, dated 2017):
Several values for one entry are separate records, joined by “and”; a condition that tells them apart may be missing. Equal entries are not always repeated. Entries after “also recorded” stand apart in the source; their conditions may differ.

Legend:
[1] = test system: Human Pancreatic Adenocarcinoma Cells (HPAC); assay: HPAC cell viability, Calbiochem Rapid Cell Proliferation Kit, optical density at 450 nm; format: cell-based; details: 48 hours; for Optical Densities in 96_Well Plate, Average: average of 5 replicate wells; for Optical Densities in 96_Well Plate: single replicate wells
Procedure: Human Pancreatic Adenocarcinoma Cells (HPAC) cells were obtained from ATCC and propagated in Dulbecco's modified Eagle's medium and Ham's F12 medium (DME-F12) (1:1) containing 2.5 mM glutamine, […], 5 ug/mL transferrin, 1 ng/mL EGF (epidermal growth factor), plus 5% FBS (fetal bovine serum). Cell cultures were incubated at 37° C., 5% CO2 in a 100% humidity atmosphere. The cells were routinely brought to confluence in T-flasks, rinsed with phosphate buffered saline (PBS), and treated with trypsin for 5 min at room temp. The trypsinized cells were rinsed from the plate with 10 mL medium and counted. Viability at subculturing was generally ≧95%.
Approximately 10,000 cells in 100 uL of medium were placed in each well of a 96-well plate and incubated over night. Peptides having the following sequences were used: Arg-15-Cys (RSSCAGAALSPLGAC; SEQ. ID NO:122); Pro-15-Val (PNEEAGAALSPLPEV; SEQ. ID NO:121); Ala-8-Leu (AGAALSPL; SEQ. ID NO:85); C-ANP 4-23 ([…]; SEQ. ID NO:124) and, VDL ([…]; SEQ. ID NO:125). The peptides were dissolved in PBS and sterile filtered. The peptides were diluted into the cell culture medium to the following final concentrations: 1, 0.3, 0.1, 0.03, and 0.01 uM. Each peptide was tested in 5 replicate wells. The cultures were incubated for an additional 48 hours at 37° C.
The viability of the cells was determined using a Calbiochem Rapid Cell Proliferation Kit (catalog number QIA127). Ten uL of Calbiochem color reagent was added to each well and incubated for an additional 1.5 hours at 37° C. Optical densities were read at 450 nm using a Molecular Devices ThermoMax microplate reader. The plate template is shown in Table I (unlabeled wells contained cells but no peptide and were used as blanks). Results are presented in Table I, and are graphically illustrated in FIGS. 1 and 2.

[2] = test system: cancer cells; details: known natriuretic peptides; cited from earlier work
[3] = target: T1, NPRC (Homo sapiens, UniProt P17342); details: cited from earlier work
T1 sequence (P17342 27-541): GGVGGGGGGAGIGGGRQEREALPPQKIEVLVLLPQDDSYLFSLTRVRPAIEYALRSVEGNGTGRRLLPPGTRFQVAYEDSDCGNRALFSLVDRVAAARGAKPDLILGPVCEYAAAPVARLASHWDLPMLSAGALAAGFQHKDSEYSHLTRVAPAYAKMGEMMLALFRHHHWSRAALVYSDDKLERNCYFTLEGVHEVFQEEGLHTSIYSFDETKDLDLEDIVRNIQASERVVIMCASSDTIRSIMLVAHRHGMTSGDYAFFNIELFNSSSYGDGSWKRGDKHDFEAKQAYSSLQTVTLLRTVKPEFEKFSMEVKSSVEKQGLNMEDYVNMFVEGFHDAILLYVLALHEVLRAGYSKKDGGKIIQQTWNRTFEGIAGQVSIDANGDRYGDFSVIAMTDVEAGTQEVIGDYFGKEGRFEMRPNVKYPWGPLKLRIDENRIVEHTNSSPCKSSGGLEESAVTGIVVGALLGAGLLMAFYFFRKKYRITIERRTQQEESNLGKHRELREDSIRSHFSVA

[4] = target: T2, NPRA (Homo sapiens, UniProt P16066); details: cited from earlier work
T2 sequence (P16066 33-1061): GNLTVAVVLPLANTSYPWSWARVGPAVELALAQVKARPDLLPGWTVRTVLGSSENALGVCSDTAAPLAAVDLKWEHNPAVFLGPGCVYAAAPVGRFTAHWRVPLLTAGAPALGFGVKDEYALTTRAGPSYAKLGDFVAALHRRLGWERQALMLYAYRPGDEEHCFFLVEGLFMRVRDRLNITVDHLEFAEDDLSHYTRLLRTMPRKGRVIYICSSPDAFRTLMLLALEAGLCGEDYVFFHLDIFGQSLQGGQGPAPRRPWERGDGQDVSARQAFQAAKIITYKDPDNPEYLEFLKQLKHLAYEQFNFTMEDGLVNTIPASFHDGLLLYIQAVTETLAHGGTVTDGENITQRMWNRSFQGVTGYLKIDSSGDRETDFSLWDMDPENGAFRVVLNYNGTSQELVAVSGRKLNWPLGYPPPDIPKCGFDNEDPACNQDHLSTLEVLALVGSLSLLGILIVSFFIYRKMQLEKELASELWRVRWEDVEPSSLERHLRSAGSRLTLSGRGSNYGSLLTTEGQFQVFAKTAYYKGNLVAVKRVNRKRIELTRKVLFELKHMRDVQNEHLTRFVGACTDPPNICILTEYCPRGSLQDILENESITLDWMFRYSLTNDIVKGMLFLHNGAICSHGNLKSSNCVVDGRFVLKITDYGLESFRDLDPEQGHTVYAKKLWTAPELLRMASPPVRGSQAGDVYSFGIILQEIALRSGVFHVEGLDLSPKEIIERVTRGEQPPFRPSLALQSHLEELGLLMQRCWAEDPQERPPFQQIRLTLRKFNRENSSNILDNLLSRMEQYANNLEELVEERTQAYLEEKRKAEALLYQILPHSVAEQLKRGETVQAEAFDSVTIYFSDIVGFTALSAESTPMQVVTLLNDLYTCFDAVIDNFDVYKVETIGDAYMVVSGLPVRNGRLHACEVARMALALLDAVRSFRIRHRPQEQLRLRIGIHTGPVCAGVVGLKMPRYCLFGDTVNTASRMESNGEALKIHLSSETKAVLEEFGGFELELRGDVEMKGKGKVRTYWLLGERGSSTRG

Substance | Optical Densities in 96_Well Plate, Average ([1]; peptide 0.01 μM) | Optical Densities in 96_Well Plate ([1]; peptide 0.01 μM) | Optical Densities in 96_Well Plate, Average ([1]; peptide 0.03 μM) | Optical Densities in 96_Well Plate ([1]; peptide 0.03 μM) | Optical Densities in 96_Well Plate, Average ([1]; peptide 0.1 μM) | Optical Densities in 96_Well Plate ([1]; peptide 0.1 μM) | Optical Densities in 96_Well Plate, Average ([1]; peptide 0.3 μM) | Optical Densities in 96_Well Plate ([1]; peptide 0.3 μM) | Optical Densities in 96_Well Plate, Average ([1]; peptide 1.0 μM) | Optical Densities in 96_Well Plate ([1]; peptide 1.0 μM) | anticancer activity / relative potency [2] | binding affinity at NPRC [3] | binding affinity at NPRA [4]
AGAALSPL [Ala-8-Leu, ID NO:85] | 0.937 | 0.744 and 0.878 and 1.000 and 0.892 and 1.169 | 0.976 | 0.892 and 0.937 and 0.989 and 0.921 and 1.139 | 0.991 | 0.832 and 1.006 and 1.031 and 0.910 and 1.174 | 1.002 | 0.784 and 0.802 and 0.998 and 1.357 and 1.070 | 0.985 | 0.732 and 1.216 and 0.954 and 0.834 and 1.189 | – | – | –
ANP: Natriuretic peptide; Table III sequence SLRRSSCFGGRMDRIGAQSGLGCNSFRY, SEQ ID NO:126 [reference compound] | 0.908 | 0.981 and 0.815 and 0.822 and 0.965 and 0.955 | 0.935 | 0.948 and 0.882 and 0.911 and 0.951 and 0.982 | 0.838 | 0.884 and 0.889 and 0.907 and 0.862 and 0.650 | 0.974 | 1.001 and 0.889 and 0.837 and 0.934 and 1.209 | 0.914 | 1.018 and 0.819 and 0.954 and 0.829 and 0.951 | greater potency observed for ANP than CNP; also recorded: have anticancer activity | higher binding affinities | higher binding affinities
EVVPPQVLSEPNEEAGAALSPLPEVPPWTGEVSPAQR [KT-220 (VDL), ID NO:125] | – | – | – | – | – | – | – | – | – | – | have anticancer activity | – | –
PNEEAGAALSPLPEV [Pro-15-Val, ID NO:121] | 0.916 | 0.907 and 0.905 and 0.633 and 1.209 and 0.928 | 0.894 | 0.892 and 0.765 and 0.693 and 1.151 and 0.970 | 0.918 | 0.680 and 0.895 and 0.893 and 1.156 and 0.964 | 0.916 | 0.875 and 0.817 and 0.855 and 1.024 and 1.010 | 0.948 | 0.856 and 0.752 and 0.802 and 1.083 and 1.248 | – | – | –
RSSCAGAALSPLGAC [Arg-15-Cys, ID NO:122] | 0.934 | 0.974 and 0.920 and 0.863 and 0.840 and 1.075 | 0.982 | 1.093 and 0.894 and 0.789 and 0.955 and 1.178 | 0.950 | 1.016 and 0.917 and 0.801 and 0.990 and 1.025 | 0.897 | 0.988 and 0.957 and 0.668 and 0.913 and 0.959 | 0.962 | 1.155 and 1.005 and 0.787 and 0.944 and 0.919 | – | – | –
RSSCFGGRIDRIGAC [C-ANP 4-23, ID NO:124, reference compound] | 0.938 | 0.877 and 0.971 and 0.953 and 0.932 and 0.958 | 0.932 | 0.905 and 0.882 and 0.981 and 0.948 and 0.943 | 0.942 | 0.758 and 1.027 and 0.983 and 0.960 and 0.982 | 0.942 | 0.840 and 0.928 and 1.035 and 0.975 and 0.932 | 0.925 | 0.865 and 0.925 and 0.900 and 0.955 and 0.981 | have anticancer activity | – | –
